These are literature values, as cited in patent publication US4213968A, “Enkephalin derivatives” (priority 1978, dated 1980).

Data set [1] relates to brain opiate receptor sites.
In another data set the test system is analgesia in the rat. The conditions noted are these: injected directly into the brain of the rat.

As for “H-Tyr-Gly-Gly-Phe-Met-OH [methionine enkephalin]”, the “binding to partially purified brain opiate receptor sites” value in data set [1] was “binds stereospecifically”. For the same substance, in the data set on opiate activity, the “activity in bioassays for opiate activity” value is “very active”. For the same substance, the analgesic activity result in the data set with analgesia in the rat was “weak analgesic activity of short duration”.
